Test results as given in PMC12056728 (RSC Advances, 2025).

Biological target: α-glucosidase (E.C.3.2.1.20) (Saccharomyces cerevisiae, UniProt P53341)
Assay: α-glucosidase inhibition assay
Format: biochemical
Details: for inhibition at 500 µM: read-out: Percent inhibition (0.5 mM); for α-glucosidase inhibitory activity (in words): IC50 could not be determined

α-glucosidase (E.C.3.2.1.20), sequence (P53341 whole entry): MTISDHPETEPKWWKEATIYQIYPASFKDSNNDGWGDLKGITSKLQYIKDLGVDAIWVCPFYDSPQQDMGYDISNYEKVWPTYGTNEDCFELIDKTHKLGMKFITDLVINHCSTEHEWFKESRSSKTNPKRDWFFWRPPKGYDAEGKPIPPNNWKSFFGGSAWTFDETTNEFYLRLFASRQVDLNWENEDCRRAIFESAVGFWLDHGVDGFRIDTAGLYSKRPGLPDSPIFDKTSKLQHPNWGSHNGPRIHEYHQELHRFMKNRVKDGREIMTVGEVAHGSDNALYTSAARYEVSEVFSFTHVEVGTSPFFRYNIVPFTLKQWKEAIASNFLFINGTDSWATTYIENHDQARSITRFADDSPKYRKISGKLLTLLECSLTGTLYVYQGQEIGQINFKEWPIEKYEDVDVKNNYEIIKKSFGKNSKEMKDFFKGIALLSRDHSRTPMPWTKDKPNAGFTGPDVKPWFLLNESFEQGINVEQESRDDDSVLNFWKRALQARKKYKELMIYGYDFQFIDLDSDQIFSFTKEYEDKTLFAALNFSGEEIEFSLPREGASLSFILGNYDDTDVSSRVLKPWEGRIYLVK

| Structure (SMILES) | inhibition at 500 µM | α-glucosidase inhibitory activity (in words) |
| --- | --- | --- |
| O=C(NN=C1C(=O)N(CCOc2ccccc2)c2ccccc21)c1ccc(Br)cc1 [1c, 4-Bromo-N′-(2-oxo-1-(2-phenoxyethyl)indolin-3-ylidene)benzohydrazide] | 90.6% | – |
| O=C(NN=C1C(=O)N(CCOc2ccc(Cl)cc2)c2ccccc21)c1cccnc1 [1d, N′-(1-(2-(4-Chlorophenoxy)ethyl)-2-oxoindolin-3-ylidene)nicotinohydrazide] | 92.9% | – |
| O=C(NN=C1C(=O)N(CCOc2ccccc2)c2ccccc21)c1cccnc1 [1a, N′-(2-Oxo-1-(2-phenoxyethyl)indolin-3-ylidene)nicotinohydrazide] | 75.6% | – |
| O=C(NN=C1C(=O)N(CCOc2ccccc2)c2ccccc21)c1ccncc1 [1b, N′-(2-Oxo-1-(2-phenoxyethyl)indolin-3-ylidene)isonicotinohydrazide] | 94.1% | – |
| O=C(NN=C1C(=O)N(CCOc2ccc(Cl)cc2)c2ccccc21)c1ccncc1 [1e, N′-(1-(2-(4-Chlorophenoxy)ethyl)-2-oxoindolin-3ylidene)isonicotinohydrazide] | 94.7% | – |

Second part, the compound after the results:

| inhibition at 500 µM | α-glucosidase inhibitory activity (in words) | Structure (SMILES) |
| --- | --- | --- |
| 89.9% | – | O=C(NN=C1C(=O)N(CCOc2ccc(Br)cc2)c2ccccc21)c1ccncc1 [1h, N′-(1-(2-(4-Bromophenoxy)ethyl)-2-oxoindolin-3-ylidene)isonicotinohydrazide] |
| 94.5% | – | O=C(NN=C1C(=O)N(CCOc2ccc(Cl)cc2)c2ccccc21)c1ccc(Br)cc1 [1f, 4-Bromo-N′-(1-(2-(4-chlorophenoxy)ethyl)-2-oxoindolin3ylidene)benzohydrazide] |
| 92.1% | – | O=C(NN=C1C(=O)N(CCOc2ccc(Br)cc2)c2ccccc21)c1cccnc1 [1g, N′-(1-(2-(4-Bromophenoxy)ethyl)-2-oxoindolin-3-ylidene)nicotinohydrazide] |
| 93.1% | – | O=C(NN=C1C(=O)N(CCOc2ccc(F)cc2)c2ccccc21)c1ccc(Br)cc1 [1l, 4-Bromo-N′-(1-(2-(4-fluorophenoxy)ethyl)-2-oxoindolin-3-ylidene)benzohydrazide] |
| 94.9% | – | O=C(NN=C1C(=O)N(CCOc2ccc(Br)cc2)c2ccccc21)c1ccc(Br)cc1 [1i, 4-Bromo-N′-(1-(2-(4-bromophenoxy)ethyl)-2-oxoindolin-3-ylidene)benzohydrazide] |
| 36% | complete loss of inhibitory activity | O=C(NN=C1C(=O)N(CCOc2ccc(F)cc2)c2ccccc21)c1cccnc1 [1j, N′-(1-(2-(4-Fluorophenoxy)ethyl)-2-oxoindolin-3-ylidene)nicotinohydrazide] |
| 39.3% | loss of inhibitory activity | O=C(NN=C1C(=O)N(CCOc2ccc(F)cc2)c2ccccc21)c1ccncc1 [1k, N′-(1-(2-(4-Fluorophenoxy)ethyl)-2-oxoindolin-3-ylidene)isonicotinohydrazide] |
